Where two headings read alike, the source gives them in different places.
Key:
[1] = biological target: recombinant PI3K (p110δ/p85α) (Homo sapiens, UniProt O00329); experiment: PI3Kδ ADP-Glo kinase assay; assay type: biochemical
Method in brief: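 ADP-Glo luminescence with recombinant p110δ/p85α and lipid kinase substrate. Compound serial dilutions preincubated 0.5 hr, ATP added, reaction 1 hr at room temperature, then ATP depletion and detection steps. IC50 from a four-parameter logistic fit of residual activity.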

PI3K (p110γ) = PI3K (p110γ) (Homo sapiens, UniProt P48736); experiment: PI3Kγ ADP-Glo kinase assay; assay type: biochemical
Sequence of PI3K (p110γ) (P48736 whole entry): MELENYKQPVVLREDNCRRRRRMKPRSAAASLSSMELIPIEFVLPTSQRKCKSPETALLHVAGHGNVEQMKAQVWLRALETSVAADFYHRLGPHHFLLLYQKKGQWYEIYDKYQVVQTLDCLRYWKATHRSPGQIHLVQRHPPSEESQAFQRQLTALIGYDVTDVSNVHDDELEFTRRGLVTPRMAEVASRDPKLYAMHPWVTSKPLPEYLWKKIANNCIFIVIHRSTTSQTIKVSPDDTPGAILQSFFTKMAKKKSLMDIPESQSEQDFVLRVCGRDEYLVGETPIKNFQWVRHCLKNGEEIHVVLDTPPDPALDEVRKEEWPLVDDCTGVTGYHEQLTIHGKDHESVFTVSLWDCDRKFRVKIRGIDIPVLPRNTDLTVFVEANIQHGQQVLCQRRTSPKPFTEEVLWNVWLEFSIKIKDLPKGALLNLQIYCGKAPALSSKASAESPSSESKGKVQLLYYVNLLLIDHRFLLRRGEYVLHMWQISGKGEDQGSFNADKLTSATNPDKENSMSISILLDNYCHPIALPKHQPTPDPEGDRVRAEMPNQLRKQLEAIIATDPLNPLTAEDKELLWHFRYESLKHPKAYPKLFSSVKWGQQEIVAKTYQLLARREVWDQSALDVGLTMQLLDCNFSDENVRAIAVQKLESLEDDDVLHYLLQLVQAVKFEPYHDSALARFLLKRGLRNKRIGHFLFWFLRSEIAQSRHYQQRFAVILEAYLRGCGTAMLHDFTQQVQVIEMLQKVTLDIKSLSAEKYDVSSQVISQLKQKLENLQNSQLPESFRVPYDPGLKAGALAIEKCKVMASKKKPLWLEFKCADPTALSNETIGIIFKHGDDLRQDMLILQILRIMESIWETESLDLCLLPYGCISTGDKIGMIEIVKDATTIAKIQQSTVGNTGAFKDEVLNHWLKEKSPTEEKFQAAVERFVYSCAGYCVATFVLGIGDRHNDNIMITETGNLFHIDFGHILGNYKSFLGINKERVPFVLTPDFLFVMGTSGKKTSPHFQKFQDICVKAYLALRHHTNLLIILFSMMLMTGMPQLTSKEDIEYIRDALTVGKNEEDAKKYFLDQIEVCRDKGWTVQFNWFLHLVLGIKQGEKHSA

[2] = Pharmacokinetic properties in Sprague-Dawley rats after IV and PO administration; assay type: in vivo; conditions: male, plasma, rat
Description: III. Pharmacokinetic Properties of Compounds in Sprague-Dawley Rats after Intravenous (IV) and Oral Administrations (PO)
Dose Formulation Preparation The injection dosing solution was prepared as follows: 1.0 mg of a test compound was weighted and dissolved in 0.32 mL of dimenthyl acetamide (DMA). The solution was then further diluted by 0.36 mL of ethanol and 0.32 mL of propylene glycol. The final concentration of the test compound was 1.0 mg·mL^−1.
The oral dosing solution was prepared as follows: 5.0 mg of a test compound was weighed and dispersed in […] of 0.5% methyl cellulose (MC). The final concentration of the test compound is 1 mg·mL^−1.
The animals were housed in solid bottom polypropylene cages with sterilized bedding and receive sterilized diet and sterilized water. The room was controlled and monitored for humidity (targeted mean range 40% to 70%) and temperature (targeted mean range 18° C. to 26° C.) with 10 to 20 air changes/hour. The light cycle was maintained at 12-h light and 12-h dark, Only animals that appeared to be healthy were selected for this study based on overall health, body weight, or other relevant information.
The male Sprague-Dawley rats were fasted overnight with free access to drinking water prior to treatment. On day 1, the animals were weighed and actual dose volume for each animal was calculated using the formula below: Dose Volume (mL)=[Nominal Dose (mg·kg^−1)/Dose Concentration (mg·mL^−1)]×Animal Body Weight (kg) (1)
Three rats were given a single IV dose of 1 mg·kg^−1 via tail vein injection and other three rats were given a single oral dose of 5 mg·kg^−1. The dosing solutions were freshly prepared prior to dose administration. The actual body weights and actual volume injected were recorded accordingly. Four hours after dosing, the rats were allowed to intake food.
Blood samples ([…]) were collected at different times from the jugular vein catheter into EDTA-K2 coated tubes, Whole blood was processed by centrifugation at 3000 g for 10 min. Plasma samples were collected and kept at −80° C. freezer prior to analysis. The blood sampling time was recorded accordingly.
The dose samples of IV and PO were diluted with MeOH:H2O (4:1, v/v) to achieve the concentration of 2 μg·mL^−1, respectively. Then, 2.5 μL of the diluted samples were added with 47.5 μL blank plasma, and then were handled as the plasma sample procedure. An aliquot of 10 μL of the mixture was injected into the LC-MS/MS system.

[3] = biological target: recombinant PI3K (p110α/p85α) (Homo sapiens, UniProt P42336); experiment: PI3Kα ADP-Glo kinase assay; assay type: biochemical
Sequence of recombinant PI3K (p110α/p85α) (P42336 whole entry): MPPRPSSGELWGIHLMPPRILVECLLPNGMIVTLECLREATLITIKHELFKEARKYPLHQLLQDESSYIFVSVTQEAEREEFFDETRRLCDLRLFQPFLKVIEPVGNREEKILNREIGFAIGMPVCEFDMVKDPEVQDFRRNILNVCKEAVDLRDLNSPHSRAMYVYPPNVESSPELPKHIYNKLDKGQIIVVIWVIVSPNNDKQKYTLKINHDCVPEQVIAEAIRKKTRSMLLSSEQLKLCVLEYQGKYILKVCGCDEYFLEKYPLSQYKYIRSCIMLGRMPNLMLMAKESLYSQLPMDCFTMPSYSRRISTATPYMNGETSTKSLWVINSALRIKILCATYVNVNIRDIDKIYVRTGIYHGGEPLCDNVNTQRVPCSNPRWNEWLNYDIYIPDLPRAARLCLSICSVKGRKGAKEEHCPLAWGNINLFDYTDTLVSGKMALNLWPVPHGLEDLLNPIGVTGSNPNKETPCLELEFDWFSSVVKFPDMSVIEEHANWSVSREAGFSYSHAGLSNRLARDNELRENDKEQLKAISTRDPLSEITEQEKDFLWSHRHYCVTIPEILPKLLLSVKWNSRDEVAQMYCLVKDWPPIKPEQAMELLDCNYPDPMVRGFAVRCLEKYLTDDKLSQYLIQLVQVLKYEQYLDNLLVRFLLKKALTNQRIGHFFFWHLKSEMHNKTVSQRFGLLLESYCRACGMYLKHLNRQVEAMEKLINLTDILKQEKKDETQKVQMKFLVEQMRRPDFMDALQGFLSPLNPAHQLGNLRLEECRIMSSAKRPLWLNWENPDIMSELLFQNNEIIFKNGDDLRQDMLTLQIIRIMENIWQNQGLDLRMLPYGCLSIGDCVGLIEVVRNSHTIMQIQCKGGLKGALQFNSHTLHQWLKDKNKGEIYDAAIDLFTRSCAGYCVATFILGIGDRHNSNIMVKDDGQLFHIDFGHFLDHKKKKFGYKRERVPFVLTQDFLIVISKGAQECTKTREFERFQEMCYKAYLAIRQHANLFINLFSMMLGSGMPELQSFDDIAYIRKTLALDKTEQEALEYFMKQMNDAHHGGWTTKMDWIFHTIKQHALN
Sequence of recombinant PI3K (p110α/p85α) (P27986 whole entry partner): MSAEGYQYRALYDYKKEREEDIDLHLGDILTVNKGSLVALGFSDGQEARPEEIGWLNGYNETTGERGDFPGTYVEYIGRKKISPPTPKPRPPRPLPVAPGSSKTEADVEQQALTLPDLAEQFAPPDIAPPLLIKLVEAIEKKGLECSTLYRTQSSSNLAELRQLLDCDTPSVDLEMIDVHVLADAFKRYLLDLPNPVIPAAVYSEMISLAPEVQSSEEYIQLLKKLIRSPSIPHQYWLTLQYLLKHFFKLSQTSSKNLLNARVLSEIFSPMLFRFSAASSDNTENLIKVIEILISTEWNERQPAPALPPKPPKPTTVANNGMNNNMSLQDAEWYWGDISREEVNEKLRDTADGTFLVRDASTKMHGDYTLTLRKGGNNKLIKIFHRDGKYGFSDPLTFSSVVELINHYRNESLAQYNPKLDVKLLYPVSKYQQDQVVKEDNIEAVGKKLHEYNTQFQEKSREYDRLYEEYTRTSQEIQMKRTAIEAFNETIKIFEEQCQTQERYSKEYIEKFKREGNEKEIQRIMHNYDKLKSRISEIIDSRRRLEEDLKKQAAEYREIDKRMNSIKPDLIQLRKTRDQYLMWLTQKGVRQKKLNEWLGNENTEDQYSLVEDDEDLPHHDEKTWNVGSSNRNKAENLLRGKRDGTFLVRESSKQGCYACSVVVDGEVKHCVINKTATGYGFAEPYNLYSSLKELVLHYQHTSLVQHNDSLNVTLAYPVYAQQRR

PI3K (p110β/p85α) = PI3K (p110β/p85α) (Homo sapiens, UniProt P42338); experiment: PI3Kβ ADP-Glo kinase assay; assay type: biochemical
Sequence of PI3K (p110β/p85α) (P42338 whole entry): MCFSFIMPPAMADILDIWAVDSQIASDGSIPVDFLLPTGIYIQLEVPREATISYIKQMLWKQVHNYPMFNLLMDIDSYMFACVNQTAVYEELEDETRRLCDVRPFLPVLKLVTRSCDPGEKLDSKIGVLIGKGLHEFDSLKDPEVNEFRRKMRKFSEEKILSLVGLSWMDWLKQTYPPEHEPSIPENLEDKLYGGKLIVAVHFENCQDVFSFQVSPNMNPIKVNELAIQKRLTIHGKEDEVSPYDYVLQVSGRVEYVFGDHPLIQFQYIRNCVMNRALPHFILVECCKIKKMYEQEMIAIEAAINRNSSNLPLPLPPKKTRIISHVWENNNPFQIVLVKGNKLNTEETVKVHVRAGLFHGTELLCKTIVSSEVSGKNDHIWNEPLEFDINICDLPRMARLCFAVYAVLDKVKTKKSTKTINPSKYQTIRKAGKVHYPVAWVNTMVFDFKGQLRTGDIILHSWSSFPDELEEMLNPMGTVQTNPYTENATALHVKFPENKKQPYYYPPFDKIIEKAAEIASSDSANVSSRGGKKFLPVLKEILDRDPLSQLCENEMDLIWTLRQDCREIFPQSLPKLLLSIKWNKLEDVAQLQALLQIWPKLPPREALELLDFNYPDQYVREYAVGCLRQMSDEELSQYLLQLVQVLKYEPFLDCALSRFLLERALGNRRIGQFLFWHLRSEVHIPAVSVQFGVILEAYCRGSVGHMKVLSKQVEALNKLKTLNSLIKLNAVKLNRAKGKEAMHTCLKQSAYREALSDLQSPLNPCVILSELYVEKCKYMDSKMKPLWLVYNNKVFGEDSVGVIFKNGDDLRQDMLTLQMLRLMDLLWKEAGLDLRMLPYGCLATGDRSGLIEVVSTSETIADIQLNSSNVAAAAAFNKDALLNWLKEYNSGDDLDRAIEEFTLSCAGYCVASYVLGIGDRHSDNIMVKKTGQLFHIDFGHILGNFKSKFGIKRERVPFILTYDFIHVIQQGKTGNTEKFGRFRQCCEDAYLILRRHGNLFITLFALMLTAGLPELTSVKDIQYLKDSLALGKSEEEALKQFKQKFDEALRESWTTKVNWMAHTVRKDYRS
Sequence of PI3K (p110β/p85α) (P27986 whole entry partner): as the sequence (P27986 whole entry partner) above

[4] = read-out: PI3Kδ Enzyme activity IC50
[5] = read-out: PI3Kγ Enzyme activity IC50
[6] = read-out: PI3Kα Enzyme activity IC50
[7] = read-out: PI3Kβ Enzyme activity IC50

Sequence of recombinant PI3K (p110δ/p85α) (O00329 whole entry): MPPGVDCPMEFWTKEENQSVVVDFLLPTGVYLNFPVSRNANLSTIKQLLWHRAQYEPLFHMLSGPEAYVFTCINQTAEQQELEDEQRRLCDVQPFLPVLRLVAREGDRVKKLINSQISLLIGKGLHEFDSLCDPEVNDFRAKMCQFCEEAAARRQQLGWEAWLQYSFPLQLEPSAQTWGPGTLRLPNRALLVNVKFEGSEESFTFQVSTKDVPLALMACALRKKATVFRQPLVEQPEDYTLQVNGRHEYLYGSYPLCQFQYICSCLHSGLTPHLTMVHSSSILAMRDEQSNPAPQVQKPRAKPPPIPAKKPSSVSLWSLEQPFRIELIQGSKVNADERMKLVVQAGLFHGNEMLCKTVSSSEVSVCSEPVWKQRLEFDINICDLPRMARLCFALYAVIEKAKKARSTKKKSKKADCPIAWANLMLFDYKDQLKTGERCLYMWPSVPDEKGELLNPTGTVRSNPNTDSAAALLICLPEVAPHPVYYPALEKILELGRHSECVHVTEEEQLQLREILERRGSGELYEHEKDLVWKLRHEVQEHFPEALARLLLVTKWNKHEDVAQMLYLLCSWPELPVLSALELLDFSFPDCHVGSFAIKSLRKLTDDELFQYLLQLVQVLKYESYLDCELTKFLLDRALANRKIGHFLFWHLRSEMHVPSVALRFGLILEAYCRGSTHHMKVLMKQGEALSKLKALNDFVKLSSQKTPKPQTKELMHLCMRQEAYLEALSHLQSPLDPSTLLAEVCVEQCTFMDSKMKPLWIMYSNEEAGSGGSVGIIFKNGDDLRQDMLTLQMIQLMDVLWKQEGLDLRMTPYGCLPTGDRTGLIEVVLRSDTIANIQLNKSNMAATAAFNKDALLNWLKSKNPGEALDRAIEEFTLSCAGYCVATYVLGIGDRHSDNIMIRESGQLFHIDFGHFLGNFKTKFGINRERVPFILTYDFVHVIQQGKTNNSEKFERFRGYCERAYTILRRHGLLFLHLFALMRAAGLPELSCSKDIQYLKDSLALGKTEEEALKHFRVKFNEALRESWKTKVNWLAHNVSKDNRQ
Sequence of recombinant PI3K (p110δ/p85α) (P27986 whole entry partner): as the sequence (P27986 whole entry partner) above

Structure (SMILES)	IC50 [1, 4]	IC50 (PI3K (p110γ); [5])	IC50 [3, 6]	IC50 (PI3K (p110β/p85α); [7])	other results
CC(C)Oc1c(C(C)c2nc(Cl)c3c(N)nccn23)cc(Cl)c(F)c1C1CNC(=O)C1 (single isomer, unassigned) [Compound 48B, 4-(3-(1-(8-amino-1-chloroimidazo[1,5-a]pyrazin-3-yl)ethyl)-5-chloro-6-fluoro-2-isopropoxyphenyl)pyrrolidin-2-one]					IC50 ([1]; PI3Kδ Enzyme activity IC50): 0.31 nM; IC50 (PI3K (p110γ); PI3Kγ Enzyme activity IC50): 630 nM; AUC(0-inf) ([2]; 1 mg/kg, IV (1 mpk)): 425 ng·h/mL; clearance ([2]; 1 mg/kg, IV (1 mpk)): 39.2 mL/min/kg; half-life ([2]; 1 mg/kg, IV (1 mpk)): 1.4 h; Vd ([2]; 1 mg/kg, IV (1 mpk), read-out: VdSS): 4.3 L/kg; AUC(0-inf) ([2]; 5 mg/kg, PO (5 mpk)): 1000 ng·h/mL; Cmax ([2]; 5 mg/kg, PO (5 mpk)): 254 ng/mL; Tmax ([2]; 5 mg/kg, PO (5 mpk)): 0.8 h; bioavailability ([2]; 5 mg/kg, PO (5 mpk)): 47%; half-life ([2]; 5 mg/kg, PO (5 mpk)): 2.1 h; IC50 ([3]; PI3Kα Enzyme activity IC50): 1300 nM; IC50 (PI3K (p110β/p85α); PI3Kβ Enzyme activity IC50): 1200 nM
CCOc1c(C(C)c2nc(Cl)c3c(N)nccn23)cc(Cl)c(C)c1N1CCOCC1 (stereo not drawn) [Compound 51, 1-chloro-3-(1-(5-chloro-2-ethoxy-4-methyl-3-morpholinophenyl)ethyl)imidazo[1,5-a]pyrazin-8-amine]	1.6 nM	1700 nM	2900 nM	2700 nM	
CC(c1cc(Cl)c(C#N)c(=O)n1-c1ccccc1)n1cc(Br)c2c(N)ncnc21 (stereo not drawn) [Compound 54, 6-(1-(4-amino-5-bromo-7H-pyrrolo[2,3-d]pyrimidin-7-yl)ethyl)-4-chloro-2-oxo-1-phenyl-1,2-dihydropyridine-3-carbonitrile]	15 nM	4200 nM	29000 nM	1700 nM	
COc1cc(C(C)n2cc(Br)c3c(N)ncnc32)n(-c2ccccc2)c(=O)c1C#N (stereo not drawn) [Compound 57, 6-(1-(4-amino-5-bromo-7H-pyrrolo[2,3-d]pyrimidin-7-yl)ethyl)-4-methoxy-2-oxo-1-phenyl-1,2-dihydropyridine-3-carbonitrile]	20 nM	1900 nM	83000 nM	1240 nM	
Cc1nc([C@@H](C)c2cc(Cl)c(F)c(-c3ccc(C(F)(F)F)nc3)c2OC(C)C)n2ccnc(N)c12 [Compound 58, (S)-3-(1-(5-chloro-4-fluoro-2-isopropoxy-3-(6-(trifluoromethyl)pyridin-3-yl)phenyl)ethyl)-1-methylimidazo[1,5-a]pyrazin-8-amine]	5.6 nM	13000 nM	14000 nM	17000 nM	
Cc1nc(C(C)c2cc(Cl)c(F)c(-c3ccc(C#N)nc3)c2OC(C)C)n2ccnc(N)c12 (stereo not drawn) [Compound 59, 5-(3-(1-(8-amino-1-methylimidazo[1,5-a]pyrazin-3-yl)ethyl)-5-chloro-6-fluoro-2-isopropoxyphenyl)picolinonitrile]	2.5 nM	6300 nM	10000 nM	3500 nM	
Cc1nc([C@@H](C)c2cc(Cl)c(F)c(-c3ccc(C(N)=NO)nc3)c2OC(C)C)n2ccnc(N)c12 [Compound 60]	1.6 nM	2800 nM	4300 nM	4200 nM	
Cc1nc([C@@H](C)c2cc(Cl)c(F)c(-c3ccc(C(=O)N4CCC(O)CC4)nc3)c2OC(C)C)n2ccnc(N)c12 [Compound 61, (S)-(5-(3-(1-(8-amino-1-methylimidazo[1,5-a]pyrazin-3-yl)ethyl)-5-chloro-6-fluoro-2-isopropoxyphenyl)pyridin-2-yl)(4-hydroxypiperidin-1-yl)methanone]	0.58 nM	3800 nM	2900 nM	6100 nM	
Cc1nc([C@@H](C)c2cc(Cl)c(F)c(-c3ccc(C(=O)NCCO)nc3)c2OC(C)C)n2ccnc(N)c12 [Compound 62, (S)-5-(3-(1-(8-amino-1-methylimidazo[1,5-a]pyrazin-3-yl)ethyl)-5-chloro-6-fluoro-2-isopropoxyphenyl)-N-(2-hydroxyethyl)picolinamide]	0.82 nM	2600 nM	5200 nM	3600 nM	
Cc1nc([C@@H](C)c2cc(Cl)c(F)c(-c3ccc(C(=O)N4CC(O)C4)nc3)c2OC(C)C)n2ccnc(N)c12 [Compound 63, (S)-(5-(3-(1-(8-amino-1-methylimidazo[1,5-a]pyrazin-3-yl)ethyl)-5-chloro-6-fluoro-2-isopropoxyphenyl)pyridin-2-yl)(3-hydroxyazetidine-1-yl)methanone]	0.56 nM	2400 nM	2600 nM	2300 nM	
Cc1nc([C@@H](C)c2cc(Cl)c(F)c(-c3ccc(C(=O)N4CC[C@@H](O)C4)nc3)c2OC(C)C)n2ccnc(N)c12 [Compound 64, (5-(3-((S)-1-(8-amino-1-methylimidazo[1,5-a]pyrazin-3-yl)ethyl)-5-chloro-6-fluoro-2-isopropoxyphenyl)pyridin-2-yl)((R)-3-hydroxypyrrolidin-1-yl)methanone]	0.37 nM	2100 nM	1400 nM	1600 nM	
Cc1nc([C@@H](C)c2cc(Cl)c(F)c(-c3ccc(C(=O)N4CC(C(=O)O)C4)nc3)c2OC(C)C)n2ccnc(N)c12 [Compound 65, (S)-1-(5-(3-(1-(8-amino-1-methylimidazo[1,5-a]pyrazin-3-yl)ethyl)-5-chloro-6-fluoro-2-isopropoxyphenyl)picolinoyl)azetidine-3-carboxylic Acid]	0.71 nM	1600 nM	5400 nM	1200 nM	
Cc1nc([C@@H](C)c2cc(Cl)c(F)c(-c3ccc(C(=O)NC4(CO)CC4)nc3)c2OC(C)C)n2ccnc(N)c12 [Compound 66, (S)-5-(3-(1-(8-amino-1-methylimidazo[1,5-a]pyrazin-3-yl)ethyl)-5-chloro-6-fluoro-2-isopropoxyphenyl)-N-(1-(hydroxymethyl)cyclopropyl)picolinamide]	0.72 nM	2600 nM	4100 nM	3400 nM	
Cc1nc([C@@H](C)c2cc(Cl)c(F)c(-c3ccc(C(=O)N4CCC[C@H]4C(=O)O)nc3)c2OC(C)C)n2ccnc(N)c12 [Compound 67, (5-(3-((S)-1-(8-amino-1-methylimidazo[1,5-a]pyrazin-3-yl)ethyl)-5-chloro-6-fluoro-2-isopropoxyphenyl)picolinoyl)-L-proline]	0.47 nM	1200 nM	5200 nM	460 nM	
Cc1nc([C@@H](C)c2cc(Cl)c(F)c(-c3ccc(C(=O)NC4(C(=O)O)CC4)nc3)c2OC(C)C)n2ccnc(N)c12 [Compound 68, (S)-1-(5-(3-(1-(8-amino-1-methylimidazo[1,5-a]pyrazin-3-yl)ethyl)-5-chloro-6-fluoro-2-isopropoxyphenyl)picolinamido)cyclopropane-1-carboxylic Acid]	0.33 nM	960 nM	3400 nM	400 nM	
Cc1nc([C@@H](C)c2cc(Cl)c(F)c(-c3ccc(C(=O)N4CCC[C@@H]4C(=O)O)nc3)c2OC(C)C)n2ccnc(N)c12 [Compound 69, (5-(3-((S)-1-(8-amino-1-methylimidazo[1,5-a]pyrazin-3-yl)ethyl)-5-chloro-6-fluoro-2-isopropoxyphenyl)picolinoyl)-D-proline]	0.71 nM	620 nM	7100 nM	610 nM	
Cc1nc([C@@H](C)c2cc(Cl)c(F)c(-c3ccc(C(=O)NC(C)(C)C(=O)O)nc3)c2OC(C)C)n2ccnc(N)c12 [Compound 70, (S)-2-(5-(3-(1-(8-amino-1-methylimidazo[1,5-a]pyrazin-3-yl)ethyl)-5-chloro-6-fluoro-2-isopropoxyphenyl)picolinamido)-2-methylpropanoic Acid]	0.33 nM	840 nM	4400 nM	540 nM	
Cc1nc([C@@H](C)c2cc(Cl)c(F)c(-c3ccc(C(=O)N4CCC(F)(F)CC4)nc3)c2OC(C)C)n2ccnc(N)c12 [Compound 71]	0.96 nM	3200 nM	4700 nM	2700 nM	

Reference: US11725012B2, “Imidazo[1,5-a]pyrazine derivatives as PI3K δ inhibitors” (priority 2016, dated 2023)
